The supplement of paper PMC11451515

Key:
Details in all cases: 48 h
SEM cells = experiment: cell viability relative to DMSO control; higher = less cytotoxic
How it was run: (§1)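 Viability is a per-plate percentage relative to DMSO wells, with cell-free wells as background. CellTiter-Glo One luminescence was read after 48 h at 37°C on 1536-well plates (5 μl) of NOMO1 or SEM (500 cells/well) or P12-Ichikawa (1000 cells/well) leukemia cells. The cells had been adapted for at least four passages in each medium and pin-dosed with library compounds in DMSO from 47 μM to 0.79 nM in 11 threefold steps.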

P12-Ichikawa [1] = experiment: as above
How it was run: as §1

NOMO1 [2] = experiment: as above
How it was run: as §1

P12-Ichikawa [3] = experiment: AUC of viability dose-response curve (% viability x log10 dose units); higher = less sensitive
How it was run: (§2)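 Leukemia cells adapted to each medium were seeded in 1536-well plates (500 or 1000 cells/well). They were dosed with library compounds in DMSO at 11 threefold doses, 47 μM to 0.79 nM, for 48 h at 37°C. CellTiter-Glo One luminescence was normalised per plate to DMSO and cell-free wells. Area under the curve was integrated by trapezoidal rule over log10 doses on a four-parameter log-logistic fit; curves exceeding full viability were scaled and curves failing quality control removed.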

NOMO1 [4] = experiment: as above
How it was run: as §2

Oc1ccc([C@@H]2Oc3ccc(O)cc3[C@@H]3CCC[C@@H]32)cc1
cell viability [%]
Details	NOMO1 [2]	P12-Ichikawa [1]	SEM cells
HPLM + 10% dialyzed FBS, 0.000781 µM	92.1	86.9	71.9
HPLM + 10% dialyzed FBS, 0.00234 µM	93.1	90.2	90.5
HPLM + 10% dialyzed FBS, 0.00702 µM	95.1	94.7	91.8
HPLM + 10% dialyzed FBS, 0.0211 µM	102	93.5	92
HPLM + 10% dialyzed FBS, 0.0632 µM	98	92.7	80.2
HPLM + 10% dialyzed FBS, 0.19 µM	89.3	95.1	90.6
HPLM + 10% dialyzed FBS, 0.569 µM	90.5	94.3	38.7
HPLM + 10% dialyzed FBS, 1.71 µM	94.2	90.5	81.9
HPLM + 10% dialyzed FBS, 5.12 µM	79.3	87.4	89.3
HPLM + 10% dialyzed FBS, 15.4 µM	62	40.6	31.4
HPLM + 10% dialyzed FBS, 46.1 µM	31.8	12.2	21.6
RPMI 5 mM glucose + 10% FBS, 0.000781 µM	93.3	88.5	60.6
RPMI 5 mM glucose + 10% FBS, 0.00234 µM	105	82.6	103
RPMI 5 mM glucose + 10% FBS, 0.00702 µM	97.5	92.7	97.5
RPMI 5 mM glucose + 10% FBS, 0.0211 µM	88.1	88.7	103
RPMI 5 mM glucose + 10% FBS, 0.0632 µM	87.3	90	106
RPMI 5 mM glucose + 10% FBS, 0.19 µM	100	87	111
RPMI 5 mM glucose + 10% FBS, 0.569 µM	99.9	85.5	44.4
RPMI 5 mM glucose + 10% FBS, 1.71 µM	89.7	85.4	103
RPMI 5 mM glucose + 10% FBS, 5.12 µM	81.8	82.3	104
RPMI 5 mM glucose + 10% FBS, 15.4 µM	77	34.1	40.3
RPMI 5 mM glucose + 10% FBS, 46.1 µM	28.8	12	18.1
RPMI 5 mM glucose + 10% dialyzed FBS, 0.000781 µM	93.8	76.8	80.4
RPMI 5 mM glucose + 10% dialyzed FBS, 0.00234 µM	92.1	80.7	94.9
RPMI 5 mM glucose + 10% dialyzed FBS, 0.00702 µM	97.7	87.2	98.4
RPMI 5 mM glucose + 10% dialyzed FBS, 0.0211 µM	90.7	85.6	97
RPMI 5 mM glucose + 10% dialyzed FBS, 0.0632 µM	90.8	82.8	96.1
RPMI 5 mM glucose + 10% dialyzed FBS, 0.19 µM	94.1	76.6	104
RPMI 5 mM glucose + 10% dialyzed FBS, 0.569 µM	90.7	82.4	102
RPMI 5 mM glucose + 10% dialyzed FBS, 1.71 µM	87.4	76.5	103
RPMI 5 mM glucose + 10% dialyzed FBS, 5.12 µM	83.2	72.8	94.9
RPMI 5 mM glucose + 10% dialyzed FBS, 15.4 µM	63.7	44.6	29
RPMI 5 mM glucose + 10% dialyzed FBS, 46.1 µM	25.6	14.4	18.4

AUC of viability dose-response curve
Details	HPLM + 10% dialyzed FBS	RPMI 5 mM glucose + 10% FBS	RPMI 5 mM glucose + 10% dialyzed FBS
NOMO1 [4]	412	423	406
P12-Ichikawa [3]	394	372	349
